Data taken from patent US20140163012A1, “PYRIDO-/AZEPINO-BENZOFURAN AND PYRIDO-/AZEPINO-BENZOTHIOPHENE MCH-1 ANTAGONISTS, METHODS OF MAKING, AND USE THEREOF” (Albany Molecular Research, Inc., priority 2012, published 2014).
Where a name gives a salt, the structure may show the parent alone.

Tests used:
human MCH-1 receptor = human MCH-1 receptor (Homo sapiens, UniProt Q99705); assay: Binding assay for human melanin-concentrating hormone (MCH-1) receptor, radioligand displacement on CHO-K1 cell membranes; conditions: for inhibition at 1 µM: read-out: MCH1 % inhibition @ 1 uM
Chain of human MCH-1 receptor (Q99705 whole entry): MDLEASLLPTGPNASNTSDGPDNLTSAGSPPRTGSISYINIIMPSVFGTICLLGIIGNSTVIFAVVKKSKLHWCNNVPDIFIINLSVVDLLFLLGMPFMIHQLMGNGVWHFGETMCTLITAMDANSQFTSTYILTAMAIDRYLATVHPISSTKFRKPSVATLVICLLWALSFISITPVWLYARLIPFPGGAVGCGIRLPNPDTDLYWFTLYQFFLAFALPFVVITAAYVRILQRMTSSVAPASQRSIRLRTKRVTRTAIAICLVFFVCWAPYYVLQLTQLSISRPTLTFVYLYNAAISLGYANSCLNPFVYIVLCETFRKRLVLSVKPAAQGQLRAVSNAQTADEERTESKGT

melting point | Ki (human MCH-1 receptor) | inhibition at 1 µM (human MCH-1 receptor) | SMILES
268 to 269 °C | 36 nM |  | Cl.O=c1cc(OCc2ccc(F)cn2)cnn1-c1ccc2c3c(oc2c1)CCNC3 [Example 50, 5-((5-Fluoropyridin-2-yl)methoxy)-2-(1,2,3,4-tetrahydrobenzofuro[3,2-c]pyridin-7-yl)pyridazin-3(2H)-one hydrochloride]
227 to 233 °C | 145 nM |  | Cc1ccc(COc2ccn(-c3ccc4c5c(oc4c3)CCNC5)c(=O)c2)cn1.Cl [Example 51, 4-((6-Methylpyridin-3-yl)methoxy)-1-(1,2,3,4-tetrahydrobenzofuro[3,2-c]pyridin-7-yl)pyridin-2(1H)-one hydrochloride]
278 to 280 °C | 73 nM |  | Cl.O=c1cc(OCc2ccc(C(F)(F)F)nc2)ccn1-c1ccc2c3c(oc2c1)CCNC3 [Example 52, 1-(1,2,3,4-Tetrahydrobenzofuro[3,2-c]pyridin-7-yl)-4-((6-(trifluoromethyl)pyridin-3-yl)methoxy)pyridin-2(1H)-one hydrochloride]
170 °C | 360 nM |  | Cl.O=c1cc(OCc2ccccc2)ccn1-c1ccc2sc3c(c2c1)CCNC3 [Example 65, 4-Benzyloxy-1-(1,2,3,4-tetrahydrobenzo[4,5]thieno[2,3-c]pyridin-6-yl)pyridin-2(1H)-one hydrochloride]
278 to 280 °C |  | 34% | Cl.O=c1cc(OCc2ccc(F)cn2)ccn1-c1ccc2sc3c(c2c1)CCNC3 [Example 66, 4-((5-Fluoropyridin-2-yl)methoxy)-1-(1,2,3,4-tetrahydrobenzo[4,5]thieno[2,3-c]pyridin-6-yl)pyridin-2(1H)-one hydrochloride]
245 to 247 °C |  | 31% | Cl.O=c1cc(OCc2ccccc2)ccn1-c1ccc2sc3c(c2c1)CNCC3 [Example 67, 4-Benzyloxy-1-(1,2,3,4-tetrahydrobenzo[4,5]thieno[3,2-c]pyridin-8-yl)pyridin-2(1H)-one hydrochloride]
165 to 167 °C |  | 13% | Cl.O=c1cc(OCc2ccc(F)cn2)ccn1-c1ccc2sc3c(c2c1)CNCC3 [Example 68, 4-(5-Fluoropyridin-2-yl)methoxy-1-(1,2,3,4-tetrahydrobenzo[4,5]thieno[3,2-c]pyridin-8-yl)pyridin-2(1H)-one hydrochloride]
228 to 230 °C |  | 69% | Cl.O=c1cc(OCc2ccc(F)cn2)ccn1-c1ccc2sc3c(c2c1)CCNCC3 [Example 69, 4-(5-Fluoropyridin-2-yl)methoxy-1-(2,3,4,5-tetrahydro-1H-benzo[4,5]thieno[2,3-d]azepin-9-yl)pyridin-2(1H)-one hydrochloride]
203 to 209 °C |  | 66% | Cl.O=C1CN(CCc2ccc(F)cn2)CCN1c1ccc2c3c(oc2c1)CCNC3 [Example 70, 4-(2-(5-Fluoropyridin-2-yl)ethyl)-1-(1,2,3,4-tetrahydrobenzofuro[3,2-c]pyridin-7-yl)piperazin-2-one hydrochloride]
> 300 °C | 7.5 nM |  | Cl.O=c1cc(-c2ccc(C(F)(F)F)cc2)ccn1-c1ccc2c3c(oc2c1)CCNC3 [Example 71, 1-(1,2,3,4-Tetrahydrobenzofuro[3,2-c]pyridin-7-yl)-4-(4-(trifluoromethyl)phenyl)pyridin-2(1H)-one hydrochloride]
> 300 °C |  | 41% | Cl.O=c1cc(-c2ccc(C(F)(F)F)nn2)ccn1-c1ccc2c3c(oc2c1)CCNC3 [Example 88, 1-(1,2,3,4-Tetrahydrobenzofuro[3,2-c]pyridin-7-yl)-4-(6-(trifluoromethyl)pyridazin-3-yl)pyridin-2(1H)-one hydrochloride]
220 to 223 °C | 84 nM |  | Cl.O=C1CN(CCc2ccc(Cl)cn2)CCN1c1ccc2c3c(oc2c1)CCNC3 [Example 91, 4-(2-(5-Chloropyridin-2-yl)ethyl)-1-(1,2,3,4-tetrahydrobenzofuro[3,2-c]pyridin-7-yl)piperazin-2-one hydrochloride]
 | 98 nM |  | O=C1CN(CCc2ccc(Cl)cc2)CCN1c1ccc2c3c(oc2c1)CCNCC3 [Example 99, 4-(4-Chlorophenethyl)-1-(2,3,4,5-tetrahydro-1H-benzofuro[2,3-d]azepin-8-yl)piperazin-2-one hydrochloride]
 | 8.1 nM |  | O=c1cc(CCc2ccc(F)cn2)ccn1-c1ccc2c3c(oc2c1)CCCNC3 [Example 100, 4-(2-(5-Fluoropyridin-2-yl)ethyl)-1-(2,3,4,5-tetrahydro-1H-benzofuro[3,2-c]azepin-8-yl)pyridin-2(1H)-one hydrochloride]
 | 8 nM |  | O=c1nc(CCc2ccc(Cl)cn2)ccn1-c1ccc2c3c(oc2c1)CCCNC3 [Example 103, 4-(2-(5-Chloropyridin-2-yl)ethyl)-1-(2,3,4,5-tetrahydro-1H-benzofuro[3,2-c]azepin-8-yl)pyrimidin-2(1H)-one hydrochloride]
 | 199 nM |  | O=c1cc(-c2ccc(C(F)(F)F)nn2)ccn1-c1ccc2c3c(oc2c1)CCCNC3 [Example 106, 1-(2,3,4,5-Tetrahydro-1H-benzofuro[3,2-c]azepin-8-yl)-4-(6-(trifluoromethyl)pyridazin-3-yl)pyridin-2(1H)-one hydrochloride]

melting point | Ki (human MCH-1 receptor) | inhibition at 1 µM (human MCH-1 receptor) | SMILES
 | 4.2 nM |  | O=c1cc(CCc2ccc(Cl)cn2)ccn1-c1ccc2c3c(oc2c1)CCCNC3 [Example 107, 4-(2-(5-Chloropyridin-2-yl)ethyl)-1-(2,3,4,5-tetrahydro-1H-benzofuro[3,2-c]azepin-8-yl)pyridin-2(1H)-one hydrochloride]
 | 3.2 nM |  | O=c1cc(CCc2ccccc2)ccn1-c1ccc2c3c(oc2c1)CCCNC3 [Example 108, 4-Phenethyl-1-(2,3,4,5-tetrahydro-1H-benzofuro[3,2-c]azepin-8-yl)pyridin-2(1H)-one hydrochloride]
 |  | 12% | O=c1cc(OCc2ccc(F)cn2)ccn1-c1ccc2oc3c(c2c1)CCCNC3 [Example 109, 4-((5-Fluoropyridin-2-yl)methoxy)-1-(2,3,4,5-tetrahydro-1H-benzofuro[2,3-c]azepin-7-yl)pyridin-2(1H)-one hydrochloride]
 |  | 12% | O=c1cc(OCc2ccccc2)ccn1-c1ccc2oc3c(c2c1)CCCNC3 [Example 110, 4-(Benzyloxy)-1-(2,3,4,5-tetrahydro-1H-benzofuro[2,3-c]azepin-7-yl)pyridin-2(1H)-one hydrochloride]
 | 13 nM |  | O=c1cc(OCc2ccc(C(F)(F)F)cn2)ccn1-c1ccc2c3c(oc2c1)CCNC3 [Example 115, 1-(1,2,3,4-Tetrahydrobenzofuro[3,2-c]pyridin-7-yl)-4-((5-(trifluoromethyl)pyridin-2-yl)methoxy)pyridin-2(1H)-one hydrochloride]
 |  | 37% | O=c1cc(OCc2ccccc2)ccn1-c1ccc2sc3c(c2c1)CCCNC3 [Example 116, 4-(Benzyloxy)-1-(2,3,4,5-tetrahydro-1H-benzo[4,5]thieno[2,3-c]azepin-7-yl)pyridin-2(1H)-one hydrochloride]
 | 103 nM |  | O=c1cc(OCc2ccccc2)ccn1-c1ccc2sc3c(c2c1)CCNCC3 [Example 117, 4-(Benzyloxy)-1-(2,3,4,5-tetrahydro-1H-benzo[4,5]thieno[2,3-d]azepin-9-yl)pyridin-2(1H)-one hydrochloride]
 | 44 nM |  | O=C1CN(CCc2ccc(Cl)cn2)CCN1c1ccc2c3c(sc2c1)CNCC3 [Example 121, 4-(2-(5-Chloropyridin-2-yl)ethyl)-1-(1,2,3,4-tetrahydrobenzothieno[2,3-c]pyridin-7-yl)piperazin-2-one hydrochloride]
 | 3.3 nM |  | O=c1cc(OCc2ccccc2)ccn1-c1ccc2c3c(sc2c1)CCCNC3 [Example 122, 4-(Benzyloxy)-1-(2,3,4,5-tetrahydro-1H-benzothieno[3,2-c]azepin-8-yl)pyridin-2(1H)-one hydrochloride]
 | 2.9 nM |  | O=c1cc(OCc2ccc(Cl)cn2)ccn1-c1ccc2c3c(sc2c1)CCCNC3 [Example 123, 4-((5-Chloropyridin-2-yl)methoxy)-1-(2,3,4,5-tetrahydro-1H-benzothieno[3,2-c]azepin-8-yl)pyridin-2(1H)-one hydrochloride]
 | 3.7 nM |  | O=c1cc(OCc2ccc(F)cn2)ccn1-c1ccc2c3c(sc2c1)CCCNC3 [Example 124, 4-((5-Fluoropyridin-2-yl)methoxy)-1-(2,3,4,5-tetrahydro-1H-benzothieno[3,2-c]azepin-8-yl)pyridin-2(1H)-one hydrochloride]
 | 10 nM |  | O=c1cc(CCc2ccc(Cl)cn2)ccn1-c1ccc2c3c(sc2c1)CNCC3 [Example 125, 4-((5-Chloropyridin-2-yl)ethyl)-1-(1,2,3,4-tetrahydrobenzothieno[2,3-c]pyridin-7-yl)pyridin-2(1H)-one hydrochloride]
 | 20 nM |  | O=c1cc(CCc2ccc(F)cn2)ccn1-c1ccc2c3c(sc2c1)CNCC3 [Example 126, 4-((5-Fluoropyridin-2-yl)ethyl)-1-(1,2,3,4-tetrahydrobenzothieno[2,3-c]pyridin-7-yl)pyridin-2(1H)-one hydrochloride]
 | 6.2 nM |  | O=c1cc(CCc2ccccc2)ccn1-c1ccc2c3c(sc2c1)CNCC3 [Example 127, 4-Phenethyl-1-(1,2,3,4-tetrahydrobenzothieno[2,3-c]pyridin-7-yl)pyridin-2(1H)-one hydrochloride]
 | 11 nM |  | O=c1cc(OCc2ccccc2)ccn1-c1ccc2c3c(oc2c1)CC1CCC3N1 (centres unmarked) [Example 128, 4-(Benzyloxy)-1-(7,8,9,10-tetrahydro-6H-7,10-epiminocyclohepta[b]benzofuran-3-yl)pyridin-2(1H)-one hydrochloride]

SMILES | melting point | Ki (human MCH-1 receptor) | inhibition at 1 µM (human MCH-1 receptor)
O=c1cc(OCc2ccc(F)cn2)ccn1-c1ccc2c3c(oc2c1)CC1CCC3N1 (centres unmarked) [Example 129, 4-((5-Fluoropyridin-2-yl)methoxy)-1-(7,8,9,10-tetrahydro-6H-7,10-epiminocyclohepta[b]benzofuran-3-yl)pyridin-2(1H)-one hydrochloride] |  | 14 nM | 
